Experimental data taken from US20250050053A1, “METHOD OF TREATMENT AND SELECTION OF PATIENTS BENEFITING FROM AGOMELATINE BASED ON EEG MEASUREMENTS” (Alto Neuroscience, Inc., priority 2023, published 2025).

Tests used:
[1] = test system: unselected depression patients; details: Cipriani et al. 2018; cited from earlier work
[2] = test system: patients with major depressive disorder; experiment: Open-label trials of adjunctive agomelatine 25 mg at bedtime; baseline EEG machine learning models predicting change in MADRS; format: in vivo, human
Experimental: The inventors conducted two parallel open-label clinical trials of agomelatine at 25 mg once at bedtime in patients with major depressive disorder (NCT05118750 and NCT05157945, whose data was pooled in these analyses). […] Patients were evaluated over the course of eight weeks of treatment.
EEG data were collected at rest (encompassing both eyes open and eyes closed conditions) prior to treatment using a 19-channel EEG system covering the conventional 10-20 electrode locations. A total of 107 patients with moderate to severe depression (MADRS 20 and PHQ-9≥10) had EEG data (107 with eyes open (REO) EEG, 105 with eyes closed (REC) EEG). Quality control assessments were conducted, yielding 105 REO patient datasets and 103 REC patient datasets. […] The training dataset consisted of 60 REO patient datasets and 60 REC patient datasets. The holdout set consisted of […] and […].
In order to compile these individual signals into a single EEG composite entropy model for prediction of treatment outcome, the inventors conducted 10-fold cross-validated machine learning using elastic net regularization against an outcome of high versus low response to agomelatine. Cross-validation divides the training dataset iteratively into 9/10 for training the machine learning model and 1/10 for evaluating the predictive utility of the model (i.e., participants left out of the training itself, though part of the aforementioned training dataset). The training sample is then divided in this way until each participant has been left out of the training subset.
The Cohen's d effect sizes at these weeks are all >0.4, indicating a substantial effect size for the prediction, especially considering that the meta-analytically calculated all-comer (i.e., unselected depression patients) effect size for the difference in treatment response to agomelatine (as monotherapy) versus placebo is d=0.26 (Cipriani et al., Lancet., 2018, 391(10128):1357-1366, PMID: 29477251).
In addition to sample entropy, the inventors developed similar machine learning models to test the predictive utility of a range of other EEG complexity measures, as well as other common EEG indices. […] Thus, certain complexity measures appear to carry consistent and strong prediction of agomelatine outcome.

SMILES: COc1ccc2cccc(CCNC(C)=O)c2c1 [agomelatine, N-[2-(7-methoxynaphthalen-1-yl)ethyl]acetamide]
- all-comer effect size d, treatment response to agomelatine (as monotherapy) versus placebo [1]: 0.26
- Cohen's d effect size, predicted responders vs non-responders, change in MADRS ([2]; EEG sample entropy machine learning model, cross-validation left-out data of training dataset, all weeks): > 0.4
- Cohen's d, prediction of agomelatine outcome ([2]; REC, Approximate Entropy, lower gamma, Week 1): 0.23
- Cohen's d, prediction of agomelatine outcome ([2]; REC, Approximate Entropy, lower gamma, Week 2): 0.29
- Cohen's d, prediction of agomelatine outcome ([2]; REC, Approximate Entropy, lower gamma, Week 4): 0.46
- Cohen's d, prediction of agomelatine outcome ([2]; REC, Detrended Fluctuation Analysis, lower beta, Week 1): 0.49
- Cohen's d, prediction of agomelatine outcome ([2]; REC, Detrended Fluctuation Analysis, lower beta, Week 2): 0.44
- Cohen's d, prediction of agomelatine outcome ([2]; REC, Detrended Fluctuation Analysis, lower beta, Week 4): 0.41
- Cohen's d, prediction of agomelatine outcome ([2]; REC, Detrended Fluctuation Analysis, upper beta, Week 1): 0.19
- Cohen's d, prediction of agomelatine outcome ([2]; REC, Detrended Fluctuation Analysis, upper beta, Week 2): 0.20
- Cohen's d, prediction of agomelatine outcome ([2]; REC, Detrended Fluctuation Analysis, upper beta, Week 4): 0.25
- Cohen's d, prediction of agomelatine outcome ([2]; REC, Higuchi Fractal Dimension, lower beta, Week 1): 0.44
- Cohen's d, prediction of agomelatine outcome ([2]; REC, Higuchi Fractal Dimension, lower beta, Week 2): 0.36
- Cohen's d, prediction of agomelatine outcome ([2]; REC, Higuchi Fractal Dimension, lower beta, Week 4): 0.28
- Cohen's d, prediction of agomelatine outcome ([2]; REC, Higuchi Fractal Dimension, lower gamma, Week 1): 0.64
- Cohen's d, prediction of agomelatine outcome ([2]; REC, Higuchi Fractal Dimension, lower gamma, Week 2): 0.58
- Cohen's d, prediction of agomelatine outcome ([2]; REC, Higuchi Fractal Dimension, lower gamma, Week 4): 0.57
- Cohen's d, prediction of agomelatine outcome ([2]; REC, Higuchi Fractal Dimension, upper beta, Week 1): −0.29
- Cohen's d, prediction of agomelatine outcome ([2]; REC, Higuchi Fractal Dimension, upper beta, Week 2): −0.20
- Cohen's d, prediction of agomelatine outcome ([2]; REC, Higuchi Fractal Dimension, upper beta, Week 4): −0.05
- Cohen's d, prediction of agomelatine outcome ([2]; REC, Higuchi Fractal Dimension, upper gamma, Week 1): 0.16
- Cohen's d, prediction of agomelatine outcome ([2]; REC, Higuchi Fractal Dimension, upper gamma, Week 2): 0.16
- Cohen's d, prediction of agomelatine outcome ([2]; REC, Higuchi Fractal Dimension, upper gamma, Week 4): 0.21
- Cohen's d, prediction of agomelatine outcome ([2]; REC, Katz Fractal Dimension, lower beta, Week 1): 0.47
- Cohen's d, prediction of agomelatine outcome ([2]; REC, Katz Fractal Dimension, lower beta, Week 2): 0.42
- Cohen's d, prediction of agomelatine outcome ([2]; REC, Katz Fractal Dimension, lower beta, Week 4): 0.37
- Cohen's d, prediction of agomelatine outcome ([2]; REC, Katz Fractal Dimension, lower gamma, Week 1): 0.25
- Cohen's d, prediction of agomelatine outcome ([2]; REC, Katz Fractal Dimension, lower gamma, Week 2): 0.23
- Cohen's d, prediction of agomelatine outcome ([2]; REC, Katz Fractal Dimension, lower gamma, Week 4): 0.23
- Cohen's d, prediction of agomelatine outcome ([2]; REC, Katz Fractal Dimension, upper beta, Week 1): 0.42
- Cohen's d, prediction of agomelatine outcome ([2]; REC, Katz Fractal Dimension, upper beta, Week 2): 0.40
- Cohen's d, prediction of agomelatine outcome ([2]; REC, Katz Fractal Dimension, upper beta, Week 4): 0.42
- Cohen's d, prediction of agomelatine outcome ([2]; REC, Katz Fractal Dimension, upper gamma, Week 1): 0.04
- Cohen's d, prediction of agomelatine outcome ([2]; REC, Katz Fractal Dimension, upper gamma, Week 2): 0.10
- Cohen's d, prediction of agomelatine outcome ([2]; REC, Katz Fractal Dimension, upper gamma, Week 4): 0.23
- Cohen's d, prediction of agomelatine outcome ([2]; REC, Largest Lyapunov Exponent, upper alpha, Week 1): 0.10
- Cohen's d, prediction of agomelatine outcome ([2]; REC, Largest Lyapunov Exponent, upper alpha, Week 2): 0.12
- Cohen's d, prediction of agomelatine outcome ([2]; REC, Largest Lyapunov Exponent, upper alpha, Week 4): 0.18
- Cohen's d, prediction of agomelatine outcome ([2]; REC, Largest Lyapunov Exponent, upper gamma, Week 1): −0.02
- Cohen's d, prediction of agomelatine outcome ([2]; REC, Largest Lyapunov Exponent, upper gamma, Week 2): 0.08
- Cohen's d, prediction of agomelatine outcome ([2]; REC, Largest Lyapunov Exponent, upper gamma, Week 4): 0.29
- Cohen's d, prediction of agomelatine outcome ([2]; REC, Lempel-Ziv Complexity, lower gamma, Week 1): −0.06
- Cohen's d, prediction of agomelatine outcome ([2]; REC, Lempel-Ziv Complexity, lower gamma, Week 2): 0.01
- Cohen's d, prediction of agomelatine outcome ([2]; REC, Lempel-Ziv Complexity, lower gamma, Week 4): 0.15
- Cohen's d, prediction of agomelatine outcome ([2]; REC, Lempel-Ziv Complexity, upper alpha, Week 1): 0.21
- Cohen's d, prediction of agomelatine outcome ([2]; REC, Lempel-Ziv Complexity, upper alpha, Week 2): 0.17
- Cohen's d, prediction of agomelatine outcome ([2]; REC, Lempel-Ziv Complexity, upper alpha, Week 4): 0.13
- Cohen's d, prediction of agomelatine outcome ([2]; REC, Modified Multiscale Entropy, lower alpha, Week 1): 0.08
- Cohen's d, prediction of agomelatine outcome ([2]; REC, Modified Multiscale Entropy, lower alpha, Week 2): 0.11
- Cohen's d, prediction of agomelatine outcome ([2]; REC, Modified Multiscale Entropy, lower alpha, Week 4): 0.19
- Cohen's d, prediction of agomelatine outcome ([2]; REC, Modified Multiscale Entropy, lower gamma, Week 1): −0.09
- Cohen's d, prediction of agomelatine outcome ([2]; REC, Modified Multiscale Entropy, lower gamma, Week 2): 0.01
- Cohen's d, prediction of agomelatine outcome ([2]; REC, Modified Multiscale Entropy, lower gamma, Week 4): 0.21
- Cohen's d, prediction of agomelatine outcome ([2]; REC, Modified Multiscale Entropy, upper alpha, Week 1): 0.19
- Cohen's d, prediction of agomelatine outcome ([2]; REC, Modified Multiscale Entropy, upper alpha, Week 2): 0.25
- Cohen's d, prediction of agomelatine outcome ([2]; REC, Modified Multiscale Entropy, upper alpha, Week 4): 0.39
- Cohen's d, prediction of agomelatine outcome ([2]; REC, Multiscale Entropy, upper alpha, Week 1): 0.05
- Cohen's d, prediction of agomelatine outcome ([2]; REO, Approximate Entropy, lower gamma, Week 1): −0.15
- Cohen's d, prediction of agomelatine outcome ([2]; REO, Approximate Entropy, lower gamma, Week 2): −0.05
- Cohen's d, prediction of agomelatine outcome ([2]; REO, Approximate Entropy, lower gamma, Week 4): 0.09
- Cohen's d, prediction of agomelatine outcome ([2]; REO, Detrended Fluctuation Analysis, upper gamma, Week 1): 0.37
- Cohen's d, prediction of agomelatine outcome ([2]; REO, Detrended Fluctuation Analysis, upper gamma, Week 2): 0.33
- Cohen's d, prediction of agomelatine outcome ([2]; REO, Detrended Fluctuation Analysis, upper gamma, Week 4): 0.32
- Cohen's d, prediction of agomelatine outcome ([2]; REO, Higuchi Fractal Dimension, delta, Week 1): −0.15
- Cohen's d, prediction of agomelatine outcome ([2]; REO, Higuchi Fractal Dimension, delta, Week 2): −0.05
- Cohen's d, prediction of agomelatine outcome ([2]; REO, Higuchi Fractal Dimension, delta, Week 4): 0.12
- Cohen's d, prediction of agomelatine outcome ([2]; REO, Higuchi Fractal Dimension, lower beta, Week 1): 0.03
- Cohen's d, prediction of agomelatine outcome ([2]; REO, Higuchi Fractal Dimension, lower beta, Week 2): 0.03
- Cohen's d, prediction of agomelatine outcome ([2]; REO, Higuchi Fractal Dimension, lower beta, Week 4): 0.05
- Cohen's d, prediction of agomelatine outcome ([2]; REO, Higuchi Fractal Dimension, upper gamma, Week 1): 0.04
- Cohen's d, prediction of agomelatine outcome ([2]; REO, Higuchi Fractal Dimension, upper gamma, Week 2): 0.06
- Cohen's d, prediction of agomelatine outcome ([2]; REO, Higuchi Fractal Dimension, upper gamma, Week 4): 0.11
- Cohen's d, prediction of agomelatine outcome ([2]; REO, Katz Fractal Dimension, delta, Week 1): 0.04
- Cohen's d, prediction of agomelatine outcome ([2]; REO, Katz Fractal Dimension, delta, Week 2): 0.07
- Cohen's d, prediction of agomelatine outcome ([2]; REO, Katz Fractal Dimension, delta, Week 4): 0.13
- Cohen's d, prediction of agomelatine outcome ([2]; REO, Katz Fractal Dimension, lower beta, Week 1): 0.28
- Cohen's d, prediction of agomelatine outcome ([2]; REO, Katz Fractal Dimension, lower beta, Week 2): 0.18
- Cohen's d, prediction of agomelatine outcome ([2]; REO, Katz Fractal Dimension, lower beta, Week 4): 0.06
- Cohen's d, prediction of agomelatine outcome ([2]; REO, Katz Fractal Dimension, upper beta, Week 1): 0.24
- Cohen's d, prediction of agomelatine outcome ([2]; REO, Katz Fractal Dimension, upper beta, Week 2): 0.24
- Cohen's d, prediction of agomelatine outcome ([2]; REO, Katz Fractal Dimension, upper beta, Week 4): 0.29
- Cohen's d, prediction of agomelatine outcome ([2]; REO, Largest Lyapunov Exponent, upper alpha, Week 1): 0.03
- Cohen's d, prediction of agomelatine outcome ([2]; REO, Largest Lyapunov Exponent, upper alpha, Week 2): 0.08
- Cohen's d, prediction of agomelatine outcome ([2]; REO, Largest Lyapunov Exponent, upper alpha, Week 4): 0.17
- Cohen's d, prediction of agomelatine outcome ([2]; REO, Largest Lyapunov Exponent, upper gamma, Week 1): −0.24
- Cohen's d, prediction of agomelatine outcome ([2]; REO, Largest Lyapunov Exponent, upper gamma, Week 2): −0.11
- Cohen's d, prediction of agomelatine outcome ([2]; REO, Largest Lyapunov Exponent, upper gamma, Week 4): 0.08
- Cohen's d, prediction of agomelatine outcome ([2]; REO, Lempel-Ziv Complexity, lower gamma, Week 1): −0.24
- Cohen's d, prediction of agomelatine outcome ([2]; REO, Lempel-Ziv Complexity, lower gamma, Week 2): −0.13
- Cohen's d, prediction of agomelatine outcome ([2]; REO, Lempel-Ziv Complexity, lower gamma, Week 4): 0.02
- Cohen's d, prediction of agomelatine outcome ([2]; REO, Lempel-Ziv Complexity, theta, Week 1): 0.13
- Cohen's d, prediction of agomelatine outcome ([2]; REO, Lempel-Ziv Complexity, theta, Week 2): 0.14
- Cohen's d, prediction of agomelatine outcome ([2]; REO, Lempel-Ziv Complexity, theta, Week 4): 0.17
- Cohen's d, prediction of agomelatine outcome ([2]; REO, Lempel-Ziv Complexity, upper beta, Week 1): 0.19
- Cohen's d, prediction of agomelatine outcome ([2]; REO, Lempel-Ziv Complexity, upper beta, Week 2): 0.21
- Cohen's d, prediction of agomelatine outcome ([2]; REO, Lempel-Ziv Complexity, upper beta, Week 4): 0.30
- Cohen's d, prediction of agomelatine outcome ([2]; REO, Modified Multiscale Entropy, upper beta, Week 1): 0.08
- Cohen's d, prediction of agomelatine outcome ([2]; REO, Modified Multiscale Entropy, upper beta, Week 2): 0.15
- Cohen's d, prediction of agomelatine outcome ([2]; REO, Modified Multiscale Entropy, upper beta, Week 4): 0.31
- Cohen's d, prediction of agomelatine outcome ([2]; REO, Multiscale Entropy, lower gamma, Week 1): −0.41
- Cohen's d, prediction of agomelatine outcome ([2]; REO, Multiscale Entropy, lower gamma, Week 2): −0.21
- Cohen's d, prediction of agomelatine outcome ([2]; REO, Multiscale Entropy, lower gamma, Week 4): 0.05
- MADRS change, high vs low Pz low-gamma sample entropy ([2]; z≥0.27, full study sample, all weeks): strong and statistically significant prediction of treatment outcome across all weeks
